Source: the Deep4Chem optical property database
Several values for one entry are separate records, joined by “and”; a condition that tells them apart may be missing. Identical values can stand only once.

Assay: solvent given as SMILES

Fc1ccc(/C=C/c2nc3c4ccccc4c4ccccc4c3o2)cc1 gave a fluorescence lifetime (in CC#N) of 1.88 ns.
CCC1(CC)c2cc(B(c3c(C)cc(C)cc3C)c3c(C)cc(C)cc3C)ccc2-c2c1c1c(c3c2C(CC)(CC)c2cc(B(c4c(C)cc(C)cc4C)c4c(C)cc(C)cc4C)ccc2-3)C(CC)(CC)c2cc(B(c3c(C)cc(C)cc3C)c3c(C)cc(C)cc3C)ccc2-1 showed a fluorescence lifetime (in C1CCOC1) of 4.4 ns.
Work on CC(C)CCCN1c2ccccc2CCc2ccccc21 yielded a fluorescence lifetime (in CC#N) of 0.89 ns and a fluorescence lifetime (in CO) of 0.86 ns.
In the case of COc1ccc(C#Cc2c3ccccc3c3n2[B-](F)(F)[N+]2=C(C)C=C(C)C2=C3)cc1, the fluorescence lifetime (in CCCCCC) is reported as 5.2 ns, the fluorescence lifetime (in CCCCCCCCO) is reported as 4.65 ns and the fluorescence lifetime (in CCOC(C)=O) is reported as 4.93 ns. It also gave a fluorescence lifetime (in CN(C)C=O) of 4.41 ns.
CN(C)c1ccc(-c2c(/C=C3/C=Cc4ccccc4N3C)c(=O)c2=O)cc1 gave a fluorescence lifetime (in C1CCCCC1) of 1.54 ns, a fluorescence lifetime (in Cc1ccccc1) of 2.48 ns and a fluorescence lifetime (in ClCCl) of 0.15 ns.
For CSc1ccc2c(c1)N(CCCN1CCN(C)CN1C)c1ccccc1S2, the fluorescence lifetime (in CC#N) was 1.03 ns, the fluorescence lifetime (in CO) was 0.96 ns and the fluorescence lifetime (in O) was 1.47 ns.
With CCN(CC)c1ccc2c(C(F)(F)F)cc(=O)oc2c1 the fluorescence lifetime (in C1CCCCC1) was 4.1 ns, the fluorescence lifetime (in CC#N) was 0.6 ns and the fluorescence lifetime (in CCO) was 0.85 ns. The fluorescence lifetime (in CCOC(C)=O) was 4.6 ns and the fluorescence lifetime (in OCC(O)CO) was 2.7 ns.
Compound COc1ccc(C2=C(c3ccc(C)cc3)C(c3ccccc3)=[N+]3C2=Nc2c(-c4ccc(OC)cc4)c(-c4ccc(C)cc4)c(-c4ccccc4)n2[B-]3(F)F)cc1 has a fluorescence lifetime (in Cc1ccccc1) of 0.23 ns.
In the case of COC(=O)c1c2ccccc2nc2ccccc12, the fluorescence lifetime (in C1CCOC1) is reported as 1.1 ns, the fluorescence lifetime (in C1COCCO1) is reported as 0.9 ns and the fluorescence lifetime (in CC#N) is reported as 0.9 ns. For the same compound, the fluorescence lifetime (in CCCCCO) was 0.7 ns, the fluorescence lifetime (in CCCCO) was 0.8 ns and the fluorescence lifetime (in CCCO) was 0.7 ns. It also gave a fluorescence lifetime (in CCO) of 0.8 ns, a fluorescence lifetime (in CO) of 1.2 ns and a fluorescence lifetime (in COCCOC) of 1.3 ns. It also gave a fluorescence lifetime (in ClC(Cl)Cl) of 0.9 ns, a fluorescence lifetime (in ClCCl) of 1.3 ns and a fluorescence lifetime (in OCCO) of 1.1 ns.
CN(C)c1ccc(C2=Cc3c4ccccc4cc[n+]3[B-](F)(F)O2)cc1 gave a fluorescence lifetime (in ClC(Cl)Cl) of 2.34 ns.
N#Cc1ccc(N(c2ccccc2)c2ccc3ccc4c(N(c5ccccc5)c5ccc(C#N)cc5)ccc5ccc2c3c54)cc1 gave a fluorescence lifetime (in ClCCl) of 2.7 ns.
For N#Cc1ccc(-n2c(-c3ccc(-c4ccc(N(c5ccccc5)c5ccccc5)cc4)s3)nc3c4ccccc4c4ccccc4c32)c2ccccc12, the fluorescence lifetime (in ClCCl) was 5.4 ns.
Compound COc1ccc(N2c3ccc4ccccc4c3-c3c4ccccc4cc[n+]3[B-]2(c2ccccc2)c2ccccc2)cc1 has a fluorescence lifetime (in Cc1ccccc1) of 0.25 ns.
With Nc1ccccc1C(=O)O the fluorescence lifetime (in C1CCCCC1) was 5.7 ns, the fluorescence lifetime (in CC#N) was 6.9 ns and the fluorescence lifetime (in CCO) was 7.6 ns. For the same compound, the fluorescence lifetime (in CS(C)=O) was 8.7 ns, the fluorescence lifetime (in O) was 8.6 ns and 8.7 ns and the fluorescence lifetime (in OCC(F)(F)F) was 5.4 ns. For the same compound, the fluorescence lifetime (in c1ccccc1) was 6.3 ns.
NCCc1c[nH]c2ccc(O)cc12 gave a fluorescence lifetime (in CC#N) of 4.1 ns, a fluorescence lifetime (in CC(C)O) of 4.28 ns and a fluorescence lifetime (in CO) of 4.04 ns. For the same compound, the fluorescence lifetime (in O) was 3.94 ns.
In the case of N#Cc1ccc(C=C(c2ccccc2)c2ccccc2)cc1, the fluorescence lifetime (in C1CCOC1) is reported as 31 ns.
Compound CC(C)(C)c1ccc2c(c1)sc1[n+]2[B-](F)(F)n2c(c3cccc4cccc2c43)=C1C#N has a fluorescence lifetime (in ClCCl) of 6 ns.
In the case of CC1(C)c2ccccc2N(c2ccc3c(c2)Oc2ccccc2S3(=O)=O)c2ccccc21, the fluorescence lifetime (in O=P(c1ccccc1)(c1ccccc1)c1ccccc1Oc1ccccc1P(=O)(c1ccccc1)c1ccccc1) is reported as 29 ns.
C(#Cc1ccc(C#Cc2ccccc2)cc1)c1ccccc1 showed a fluorescence lifetime (in ClC(Cl)Cl) of 2.57 ns.
Compound COc1ccc(-c2nc3c(ccc4ccccc43)oc2=O)cc1 has a fluorescence lifetime (in c1ccccc1) of 2.1 ns.
Compound COc1cccc2c1-c1ccccc1C2=O has a fluorescence lifetime (in C1CCCCC1) of 10.7 ns and a fluorescence lifetime (in CC#N) of 1.8 ns.
With Cc1ccc(-c2ccc(/C=C/c3ccc(F)cc3)cn2)nc1 the fluorescence lifetime (in CC#N) was 0.99 ns.
Compound CCC1(CC)c2ccccc2-c2c1c1c(c3c2C(CC)(CC)c2cc(N(c4ccccc4)c4ccccc4)ccc2-3)C(CC)(CC)c2ccccc2-1 has a fluorescence lifetime (in C1CCOC1) of 1.6 ns.
In the case of CCCCN1C(=O)c2ccc3c4ccc5c6c(ccc(c7ccc(c2c37)C1=O)c64)C(=O)N(CCCC)C5=O, the fluorescence lifetime (in ClC(Cl)Cl) is reported as 3.8 ns.
With COc1cc(OC)c2c(c1)C(=O)c1ccccc1-2 the fluorescence lifetime (in C1CCCCC1) was 5.8 ns and the fluorescence lifetime (in CC#N) was 0.9 ns.
For CCCCCCCCC1(CCCCCCCC)c2ccccc2-c2ccc(N(c3ccc(-n4c5ccccc5c5ccccc54)cc3)c3ccc4c(c3)C(CCCCCCCC)(CCCCCCCC)c3ccccc3-4)cc21, the fluorescence lifetime (in C1CCOC1) was 1.8 ns, the fluorescence lifetime (in CC#N) was 1.8 ns and the fluorescence lifetime (in CC(C)=O) was 1.75 ns. For the same compound, the fluorescence lifetime (in CCCCCC) was 1.68 ns, the fluorescence lifetime (in CCCCOCCCC) was 1.78 ns and the fluorescence lifetime (in CCN(CC)CC) was 1.69 ns. For the same compound, the fluorescence lifetime (in CCOC(C)=O) was 1.66 ns, the fluorescence lifetime (in CCOCC) was 1.97 ns and the fluorescence lifetime (in CN(C)C=O) was 1.87 ns. For the same compound, the fluorescence lifetime (in Cc1ccccc1) was 1.75 ns and the fluorescence lifetime (in ClCCl) was 1.62 ns.
With C(=C\c1ccccn1)/c1ccc(N(c2ccc(/C=C/c3ccccn3)cc2)c2ccc(-c3nc4ccccc4nc3-c3ccc(N(c4ccc(/C=C/c5ccccn5)cc4)c4ccc(/C=C/c5ccccn5)cc4)cc3)cc2)cc1 the fluorescence lifetime (in C1CCOC1) was 1.17 ns.
For CCCCCCC(CCCCCC)N1C(=O)c2cccc3c(-c4ccc(C#N)cc4)ccc(c23)C1=O, the fluorescence lifetime (in CCCCCC) was 1.02 ns, the fluorescence lifetime (in CCCCCCCCCCCCCC) was 0.994 ns and the fluorescence lifetime (in CCCCCCCCCCCO) was 2.12 ns. It also gave a fluorescence lifetime (in CCCCO) of 2.21 ns, a fluorescence lifetime (in CN(C)C=O) of 2.15 ns and a fluorescence lifetime (in Cc1ccccc1) of 1.16 ns. It also gave a fluorescence lifetime (in ClC(Cl)Cl) of 1.34 ns.
